Experimental data published in PubChem BioAssay (NCI).
“And” between values parts separate entries of the source, which are not always exact repeats. Equal entries are not always repeated.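 Values below derive from 48-hour exposures of cells grown in 96-well plates, with endpoints linearly interpolated between the two concentrations bracketing the appropriate inhibition level. GI50 marks 50% less growth. TGI marks complete inhibition of growth.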

The compounds below were run on SNB-19 CNS (assay: NCI anticancer screen, dose series, 48 h).
`NC(CSC(c1ccccc1)(c1ccccc1)c1ccc2c(c1)OCO2)C(=O)O` (centres undefined) gave a GI50 of 0.665 µM and a TGI of over 100 µM. With `C=CCc1cc(OC)c2c(c1)C(O)CC(c1ccc(OC)c(OC)c1)O2` (centres undefined) the TGI was over 100 µM. `O=C(NCCNc1nccc(-c2c(-c3cccc(O)c3)nc3sccn23)n1)c1ccccc1O` gave a GI50 of 12.6 µM and a TGI of over 78.7 µM. Compound `CCCCCCCC(=O)SCC/C=C/[C@@H]1CC(=O)NCc2cccc(n2)C2=N[C@@](C)(CS2)C(=O)N[C@@H](C(C)C)C(=O)N1` has a GI50 of 2.06 µM and a TGI of over 33.3 µM. `C[C@@H](CS(C)(=O)=O)Nc1ncc2cc(Oc3ccc(F)cc3F)c(=O)n(C)c2n1` showed a GI50 of over 25 µM and a TGI of over 25 µM. Compound `CC(C)=CCCc1c(C)ccc2c1C(=O)C(=O)C(C(C)C)=C2` has a TGI of over 22 µM. With `COC(=O)[C@@H](C)C[C@H](Cc1ccc(F)cc1)NC(=O)c1csc([C@@H](C[C@H](C(C)C)N(C)C(=O)[C@@H](NC(=O)[C@H]2CCCCN2C)C(C)C)OC(C)=O)n1` the TGI was over 16.7 µM. `N#CC(C#N)=c1ccc(=C2NCC3CCCN23)cc1` (centres undefined) was tested, and the TGI was over 100 µM. `Cc1cnc(NC(=O)C(Cc2ccccc2)NC(=O)c2ccccc2)s1` (centres undefined) gave a GI50 of 19 µM and a TGI of 48.6 µM. `CCOC(=O)COc1cccc2c1C(=O)CCO2` was tested, and the TGI was over 100 µM. Work on `O=[N+]([O-])c1cnc(Sc2ccncn2)s1` yielded a GI50 of 15.9 µM and a TGI of 31.9 µM. `COC(=O)[C@@]12C3=NO[C@]1(C(=O)OC)C(O[Si](C)(C)C(C)(C)C)[C@H]1OC(C)(C)O[C@H]1[C@@H]2C(OCc1ccccc1)CC3` (some centres undefined) was tested, and the TGI was 99.8 µM. For `O=C(O)c1cc(C(=O)O)cc(N2C(=O)c3ccccc3C2=O)c1`, the TGI was over 100 µM. `COc1c2ccoc2c(/C=C/C=O)c2oc(-c3ccccc3)cc(=O)c12` was tested, and the GI50 was 12 µM and the TGI was over 100 µM. In the case of `CN(CC(=O)O)S(=O)(=O)c1ccc2ccccc2c1`, the TGI is reported as over 100 µM. Compound `CCN(CC)CC(C(=O)Nc1c(C)cccc1C)/C(C)=N\NC(=O)C[N+](C)(C)C` (centres undefined) has a TGI of over 100 µM. Compound `CC1=C(C(=O)Nc2ccccc2C)C(c2ccco2)C(C(=O)Nc2ccccc2C)=C(C)N1C` has a TGI of over 100 µM. For `CC(=O)OC(C)C(=O)C1c2cccc(O)c2C(=O)c2c(O)cc(C)cc21` (centres undefined), the TGI was 1.6 µM. `O=[S@@]1Nc2ccc(Br)cc2S1` was tested, and the TGI was 39.3 µM. Compound `O=C1NC2(CCCCC2)C2CCCCC(O)C12` (centres undefined) has a TGI of over 100 µM. `COc1ccc(-n2/c(=N/C(=S)N(C)C)ss/c2=N\C(=S)N(C)C)cc1` was tested, and the TGI was 45.5 µM. `CC1=C(C(=O)Nc2ccc(F)c(Cl)c2)C(c2ccc(Cl)cc2)NC(=O)N1` (centres undefined) showed a GI50 of 33.1 µM and a TGI of over 100 µM. Compound `Oc1ccc(Cl)cc1-c1cc(-c2ccccc2Cl)[nH]n1` has a GI50 of over 100 µM and a TGI of over 100 µM. Compound `CCOC(=O)C(Sc1ccccc1)c1c(OC)cc(=O)oc1/C=[N+](/[O-])c1ccc(N(C)C)cc1` (centres undefined) has a TGI of over 100 µM. Work on `CNC(=O)c1cc(Oc2ccc3nc(NC(=O)Nc4ccc(Cl)c(C(F)(F)F)c4)sc3c2)ccn1` yielded a GI50 of 2.77 µM and a TGI of 10.2 µM. Work on `COc1ccccc1NC(=O)CC(=O)n1nc(C)c(N=Nc2ccccc2C(=O)O)c1C` yielded a TGI of over 100 µM. Compound `CC(=O)N1[C@H](C(=O)O)CS[C@H]1c1ccncc1` has a TGI of over 100 µM. In the case of `CC(=O)OC1COC(n2c(=S)n(-c3ccc(C)cc3)c(=O)c3ccccc32)C(OC(C)=O)C1OC(C)=O` (centres undefined), the TGI is reported as over 100 µM. For `COc1cccc(NC(=O)CC(=O)n2nc(C)c(N=Nc3ccccc3)c2C)c1`, the TGI was over 100 µM. For `CC(=O)[O][Hg][c]1c(N)c(C)cc(C)c1F`, the GI50 was 1.99 µM and the TGI was 5.13 µM. Compound `CSc1ccccc1C#C/C=C\C#Cc1ccccc1N1CCCC1=O` has a GI50 of over 11 µM and a TGI of over 50 µM. Compound `O=C(O)CCSC(=O)Nc1cccc(F)c1` has a TGI of over 100 µM. In the case of `O=C(CCl)N1c2ccccc2Oc2ccc3ccccc3c21`, the GI50 is reported as 1.86 µM and the TGI is reported as 3.44 µM.

What follows are compounds tested on SK-MEL-2 melanoma (assay: NCI anticancer screen, dose series, 48 h).
`NC(CSC(c1ccccc1)(c1ccccc1)c1ccc2c(c1)OCO2)C(=O)O` (centres undefined) showed a GI50 of 0.511 µM and a TGI of 27.4 µM. `C=CCc1cc(OC)c2c(c1)C(O)CC(c1ccc(OC)c(OC)c1)O2` (centres undefined) gave a TGI of over 100 µM. Work on `O=C(NCCNc1nccc(-c2c(-c3cccc(O)c3)nc3sccn23)n1)c1ccccc1O` yielded a GI50 of 1.59 µM and a TGI of 6.09 µM. With `CCCCCCCC(=O)SCC/C=C/[C@@H]1CC(=O)NCc2cccc(n2)C2=N[C@@](C)(CS2)C(=O)N[C@@H](C(C)C)C(=O)N1` the GI50 was 1.03 µM and the TGI was 15.6 µM. With `C[C@@H](CS(C)(=O)=O)Nc1ncc2cc(Oc3ccc(F)cc3F)c(=O)n(C)c2n1` the GI50 was over 25 µM and the TGI was over 25 µM. `CC(C)=CCCc1c(C)ccc2c1C(=O)C(=O)C(C(C)C)=C2` showed a TGI of 8.14 µM. In the case of `COC(=O)[C@@H](C)C[C@H](Cc1ccc(F)cc1)NC(=O)c1csc([C@@H](C[C@H](C(C)C)N(C)C(=O)[C@@H](NC(=O)[C@H]2CCCCN2C)C(C)C)OC(C)=O)n1`, the GI50 is reported as 0.000792 µM and 0.00503 µM and the TGI is reported as over 16.7 µM. `N#CC(C#N)=c1ccc(=C2NCC3CCCN23)cc1` (centres undefined) showed a TGI of over 100 µM. `CCOC(=O)COc1cccc2c1C(=O)CCO2` showed a TGI of over 100 µM. For `CSc1ccc(/C=C2\CN(C)C/C(=C\c3ccc(SC)cc3)C2=O)cc1`, the TGI was over 100 µM. Work on `O=[N+]([O-])c1cnc(Sc2ccncn2)s1` yielded a GI50 of 7.99 µM and a TGI of 21.9 µM. `COC(=O)[C@@]12C3=NO[C@]1(C(=O)OC)C(O[Si](C)(C)C(C)(C)C)[C@H]1OC(C)(C)O[C@H]1[C@@H]2C(OCc1ccccc1)CC3` (some centres undefined) gave a TGI of over 100 µM. With `O=C(O)c1cc(C(=O)O)cc(N2C(=O)c3ccccc3C2=O)c1` the TGI was over 100 µM. `COc1c2ccoc2c(/C=C/C=O)c2oc(-c3ccccc3)cc(=O)c12` gave a GI50 of 10.6 µM and a TGI of over 100 µM. In the case of `CN(CC(=O)O)S(=O)(=O)c1ccc2ccccc2c1`, the TGI is reported as over 100 µM. `CC1=C(C(=O)Nc2ccccc2C)C(c2ccco2)C(C(=O)Nc2ccccc2C)=C(C)N1C` showed a TGI of over 100 µM. `CC(=O)OC(C)C(=O)C1c2cccc(O)c2C(=O)c2c(O)cc(C)cc21` (centres undefined) gave a TGI of 1.44 µM. For `O=[S@@]1Nc2ccc(Br)cc2S1`, the TGI was over 100 µM. `COc1ccc2c(c1)C1(C=N2)CCN(C(C)=O)CC1` showed a TGI of over 100 µM. `O=C1NC2(CCCCC2)C2CCCCC(O)C12` (centres undefined) showed a TGI of over 100 µM. For `COc1ccc(-n2/c(=N/C(=S)N(C)C)ss/c2=N\C(=S)N(C)C)cc1`, the TGI was over 100 µM. For `CC1=C(C(=O)Nc2ccc(F)c(Cl)c2)C(c2ccc(Cl)cc2)NC(=O)N1` (centres undefined), the GI50 was 19.1 µM and the TGI was 35.3 µM. `CCOC(=O)C(Sc1ccccc1)c1c(OC)cc(=O)oc1/C=[N+](/[O-])c1ccc(N(C)C)cc1` (centres undefined) showed a TGI of 77.5 µM. `CNC(=O)c1cc(Oc2ccc3nc(NC(=O)Nc4ccc(Cl)c(C(F)(F)F)c4)sc3c2)ccn1` was tested, and the GI50 was 5.69 µM and the TGI was 47 µM. With `O=C(O)C(Cc1ccccc1)N1C(=O)N/C(=C\c2ccc(F)cc2)C1=O` (centres undefined) the TGI was over 100 µM. `COc1ccccc1NC(=O)CC(=O)n1nc(C)c(N=Nc2ccccc2C(=O)O)c1C` was tested, and the TGI was over 100 µM. In the case of `CC(=O)OC1COC(n2c(=S)n(-c3ccc(C)cc3)c(=O)c3ccccc32)C(OC(C)=O)C1OC(C)=O` (centres undefined), the TGI is reported as over 100 µM. `CC(=O)[O][Hg][c]1c(N)c(C)cc(C)c1F` showed a GI50 of 1.56 µM and a TGI of 3.23 µM. In the case of `CSc1ccccc1C#C/C=C\C#Cc1ccccc1N1CCCC1=O`, the TGI is reported as over 50 µM. `O=C(O)CCSC(=O)Nc1cccc(F)c1` gave a TGI of over 100 µM. In the case of `O=C(CCl)N1c2ccccc2Oc2ccc3ccccc3c21`, the GI50 is reported as 1.14 µM and the TGI is reported as 2.67 µM. For `CCNC1C2(CCCCC2)NC(=O)C12CCCCC2` (centres undefined), the TGI was over 100 µM.

What follows are compounds tested on SN12C renal (assay: NCI anticancer screen, dose series, 48 h).
`NC(CSC(c1ccccc1)(c1ccccc1)c1ccc2c(c1)OCO2)C(=O)O` (centres undefined) was tested, and the GI50 was 0.633 µM and the TGI was over 100 µM. `C=CCc1cc(OC)c2c(c1)C(O)CC(c1ccc(OC)c(OC)c1)O2` (centres undefined) gave a TGI of over 100 µM. `O=C(NCCNc1nccc(-c2c(-c3cccc(O)c3)nc3sccn23)n1)c1ccccc1O` showed a GI50 of 3.56 µM and a TGI of 52 µM. `CCCCCCCC(=O)SCC/C=C/[C@@H]1CC(=O)NCc2cccc(n2)C2=N[C@@](C)(CS2)C(=O)N[C@@H](C(C)C)C(=O)N1` gave a GI50 of 3.25 µM and a TGI of over 33.3 µM. In the case of `C[C@@H](CS(C)(=O)=O)Nc1ncc2cc(Oc3ccc(F)cc3F)c(=O)n(C)c2n1`, the GI50 is reported as over 25 µM and the TGI is reported as over 25 µM. `CC(C)=CCCc1c(C)ccc2c1C(=O)C(=O)C(C(C)C)=C2` gave a TGI of over 22 µM. In the case of `COC(=O)[C@@H](C)C[C@H](Cc1ccc(F)cc1)NC(=O)c1csc([C@@H](C[C@H](C(C)C)N(C)C(=O)[C@@H](NC(=O)[C@H]2CCCCN2C)C(C)C)OC(C)=O)n1`, the GI50 is reported as 0.00197 µM and 0.013 µM and the TGI is reported as over 16.7 µM. `N#CC(C#N)=c1ccc(=C2NCC3CCCN23)cc1` (centres undefined) showed a TGI of over 100 µM. With `Cc1cnc(NC(=O)C(Cc2ccccc2)NC(=O)c2ccccc2)s1` (centres undefined) the GI50 was 3.05 µM and the TGI was 17.5 µM. Work on `CCOC(=O)COc1cccc2c1C(=O)CCO2` yielded a TGI of over 100 µM. Work on `CSc1ccc(/C=C2\CN(C)C/C(=C\c3ccc(SC)cc3)C2=O)cc1` yielded a TGI of 78.9 µM. `O=[N+]([O-])c1cnc(Sc2ccncn2)s1` gave a GI50 of 3.24 µM and a TGI of 8.41 µM. `COC(=O)[C@@]12C3=NO[C@]1(C(=O)OC)C(O[Si](C)(C)C(C)(C)C)[C@H]1OC(C)(C)O[C@H]1[C@@H]2C(OCc1ccccc1)CC3` (some centres undefined) showed a TGI of over 100 µM.
